Like-named read-outs stand apart in the source and are kept apart here.
What was measured:
hP2X3 = target: T1, hP2X3 (Homo sapiens, UniProt P56373); assay: Calcium uptake assay (P2X antagonist assay), P2X3 homomer; format: cell-based
T1 construct: expressed in transfected cells; host or cells: e.g. HEK293 or 1321N1
T1 sequence (P56373 1-397): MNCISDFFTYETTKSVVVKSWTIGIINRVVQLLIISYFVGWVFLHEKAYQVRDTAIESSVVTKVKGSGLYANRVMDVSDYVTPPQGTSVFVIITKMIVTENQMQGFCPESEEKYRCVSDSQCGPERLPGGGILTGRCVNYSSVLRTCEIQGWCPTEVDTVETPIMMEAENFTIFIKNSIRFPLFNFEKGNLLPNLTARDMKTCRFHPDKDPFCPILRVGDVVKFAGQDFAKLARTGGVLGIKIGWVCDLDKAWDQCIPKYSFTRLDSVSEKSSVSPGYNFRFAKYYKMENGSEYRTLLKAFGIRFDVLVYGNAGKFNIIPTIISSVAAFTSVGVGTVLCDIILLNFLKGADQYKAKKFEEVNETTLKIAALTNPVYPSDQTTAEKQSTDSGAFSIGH
In short: (§1)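 Stably or transiently transfected HEK293 or 1321N1 cells; the heteromer is made by adding P2X3 to a P2X2-stable line, with heteromer function isolated pharmacologically. The peak-minus-baseline FLIPR calcium signal gives % inhibition and a 4-parameter-logistic IC50.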

hP2X2/3H = target: T2, hP2X2/3H (Homo sapiens, UniProt P56373+Q9UBL9); assay: Calcium uptake assay (P2X antagonist assay), P2X2/3 heteromer; format: cell-based
T2 construct: expressed in transfected cells; host or cells: e.g. HEK293 or 1321N1
T2 sequence (Q9UBL9 1-471): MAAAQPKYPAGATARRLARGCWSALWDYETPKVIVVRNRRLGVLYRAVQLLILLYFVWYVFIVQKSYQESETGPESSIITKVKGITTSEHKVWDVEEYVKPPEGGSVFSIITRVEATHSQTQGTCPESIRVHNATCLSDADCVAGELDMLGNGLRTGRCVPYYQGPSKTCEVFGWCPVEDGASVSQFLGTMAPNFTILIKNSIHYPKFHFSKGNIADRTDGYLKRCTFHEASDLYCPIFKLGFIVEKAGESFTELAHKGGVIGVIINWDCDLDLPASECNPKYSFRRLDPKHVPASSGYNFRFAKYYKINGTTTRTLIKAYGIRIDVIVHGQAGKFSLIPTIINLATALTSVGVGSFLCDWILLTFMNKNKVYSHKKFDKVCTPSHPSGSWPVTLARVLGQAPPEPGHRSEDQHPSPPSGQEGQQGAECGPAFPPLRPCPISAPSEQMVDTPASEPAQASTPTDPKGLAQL
T2 sequence (P56373 1-397): T1 sequence (P56373 1-397)
In short: as §1

[1] = Ca influx (calcium uptake assay), hP2X3, read-out: IC50 hP2X3
[2] = Ca influx (calcium uptake assay), hP2X2/3H, read-out: IC50 hP2X2/3H
[3] = calcium uptake assay, hP2X3, read-out: IC50 hP2X3 (nM), Ca Influx
[4] = calcium uptake assay, hP2X2/3H, read-out: IC50 hP2X2/3H (nM), Ca Influx

IC50 (hP2X3; [1]) | IC50 (hP2X2/3H; [2]) | IC50 (hP2X3; [3]) | IC50 (hP2X2/3H; [4]) | Structure (SMILES) | other results
100 to 500 nM | 100 to 500 nM | – | – | Cc1ccc(-c2cc(Oc3ncccn3)cc(C(=O)NCc3ccc(C)nc3)c2)cc1 [Compound 233] | –
– | – | < 100 nM | 100 to 500 nM | Cc1ccc(-c2cc(C(=O)NCc3cnc(C)nc3)cc(S(C)(=O)=O)c2)c(C#N)c1 [Compound 59] | –
– | – | 100 to 500 nM | 501 to 1000 nM | Cc1ccc(-c2cc(C(=O)N[C@H](C)c3cnn(C)c3C(F)(F)F)cc(C(=O)N3CCCC3)c2)cc1 [Compound 107] | –
– | – | < 100 nM | < 100 nM | Cc1ccc(-c2cc(C(=O)NCc3cnc(C)nc3)cc(C(=O)N3CC(F)(F)C3)c2)cc1 [Compound 17, 5-(3,3-Difluoroazetidine-1-carbonyl)-4′-methyl-N-((2-methylpyrimidin-5-yl)methyl)biphenyl-3-carboxamide] | –
– | – | 100 to 500 nM | 501 to 1000 nM | Cc1ccc(-c2cc(C#N)cc(C(=O)NCc3ccc(C)nc3)c2)nc1 [Compound 160] | –
– | – | < 100 nM | 100 to 500 nM | COc1ncc([C@@H](C)NC(=O)c2cc(C(=O)N3CC(O)C3)cc(-c3ccc(C)cc3)c2)cn1 [Compound 84] | –
< 100 nM | 100 to 500 nM | – | – | Cc1ccc(-c2cc(OCCO)cc(C(=O)N[C@H](C)c3ccc(C)nc3)c2)nc1 [Compound 329] | –
< 100 nM | 100 to 500 nM | – | – | Cc1ccc(-c2cc(CO)cc(C(=O)N[C@H](C)c3ccc(C)nc3)c2)cc1 [Compound 320] | –
– | – | < 100 nM | 100 to 500 nM | Cc1ccc(-c2cc(C(=O)NCc3ccc(C)nc3)cc(C(=O)N3CC[C@H](N(C)C)C3)c2)cc1 [Compound 142] | –
< 100 nM | < 100 nM | – | – | Cc1ccc(-c2cc(C(=O)NCc3ccc(C)nc3)cc(C(O)CN3CC(C)OC(C)C3)c2)cc1 (stereo not shown) [Compound 391] | –
< 100 nM | < 100 nM | – | – | Cc1ccc(-c2cc(Oc3nccs3)cc(C(=O)N[C@H](C)c3ccc(C)nc3)c2)nc1 [Compound 264, (R)-3-(5-Methylpyridin-2-yl)-N-(1-(6-methylpyridin-3-yl)ethyl)-5-(thiazol-2-yloxy)benzamide] | –
– | – | < 100 nM | < 100 nM | Cc1ccc(-c2cc(C(=O)NCc3ccc(C)nc3)cc(S(C)(=O)=O)c2)cc1 [Compound 58, 4′-Methyl-N-((6-methylpyridin-3-yl)methyl)-5-(methylsulfonyl)biphenyl-3-carboxamide] | –
– | – | < 100 nM | < 100 nM | Cc1ccc(-c2cc(C(=O)NCc3cnc(C)cn3)cc(C(=O)N3CCCC3)c2)cc1 [Compound 51] | –
– | – | < 100 nM | < 100 nM | Cc1ccc(-c2cc(C(=O)N[C@H](C)c3cnc(C)nc3)cc(C(=O)N3CCCC3)c2)nc1 [Compound 174] | –
< 100 nM | 100 to 500 nM | – | – | Cc1ccc(-c2cc(C(=O)NCc3ccc(C)nc3)cc(C(O)CN3CC(O)C3)c2)cc1 (stereo not shown) [Compound 388] | –
< 100 nM | < 100 nM | – | – | [2H]C([2H])([2H])c1ccc(-c2cc(C(=O)NCc3ccc(C)nc3)cc(C(=O)N3CCCC3)c2)cc1 [Compound 203, 4′-Methyl-d3-N-((6-methylpyridin-3-yl)methyl)-5-(pyrrolidine-1-carbonyl)biphenyl-3-carboxamide] | –
– | – | 100 to 500 nM | < 100 nM | Cc1ccc(-c2cc(C(=O)NCc3ccc(C)nc3)cc(C(=O)N3CCOc4ccccc43)c2)cc1 [Compound 190] | –
< 100 nM | 100 to 500 nM | – | – | Cc1ncc(CNC(=O)c2cc(C(=O)N3CCCC3)cc(-c3ccc(Br)cc3)c2)cn1 [Compound 215] | –
< 100 nM | < 100 nM | – | – | Cc1ccc(-c2cc(C(=O)N[C@H](CCO)c3ccc(C)nc3)cc(S(C)(=O)=O)c2)cc1 [Compound 205] | –
– | – | < 100 nM | < 100 nM | Cc1ccc(-c2cc(C(=O)NCc3ccc(Cl)nc3)cc(C(=O)N3CCCC3)c2)c(C#N)c1 [Compound 69] | –
< 100 nM | < 100 nM | – | – | Cc1ccc(-c2cc(OC3COCC3O)cc(C(=O)N[C@H](C)c3cnc(C)nc3)c2)c(C#N)c1 (stereo partly shown) [Compound 363] | –
– | – | < 100 nM | < 100 nM | Cc1ccc(-c2cc(C(=O)NCc3ccc(C)nc3)cc(C(=O)N3C4CCC3CC4)c2)cc1 [Compound 193] | –

Second part, the compound before the results:

Structure (SMILES) | IC50 (hP2X3; [1]) | IC50 (hP2X2/3H; [2]) | IC50 (hP2X3; [3]) | IC50 (hP2X2/3H; [4]) | other results
Cc1ccc(-c2cc(Oc3nccs3)cc(C(=O)N[C@H](C)c3ccc(C)nc3)c2)cc1 [Compound 239] | < 100 nM | < 100 nM | – | – | –
Cc1ccc(-c2cc(OCC3CNCCO3)cc(C(=O)N[C@H](C)c3ccc(C)nc3)c2)nc1 (stereo partly shown) [Compound 349] | < 100 nM | 100 to 500 nM | – | – | –
Cc1ccc(-c2cc(C(=O)NCc3ccc(C)nc3)cc(C(=O)N(C)C)c2)cc1 [Compound 166, N3,N3,4′-Trimethyl-N5-((6-methylpyridin-3-yl)methyl)biphenyl-3,5-dicarboxamide] | – | – | < 100 nM | 100 to 500 nM | –
Cc1ccc(-c2cc(C(=O)NCc3ccc(C)nc3)cc(C(O)CN3CC4CN(C)CC4C3)c2)cc1 (stereo not shown) [Compound 399] | – | – | – | – | IC50 (hP2X3; Ca influx, calcium uptake assay, read-out: IC50 hP2X3): 100 to 500 nM; IC50 (hP2X2/3H; Ca influx, calcium uptake assay, read-out: IC50 hP2X2/3H): 501 to 1000 nM
Cc1ccc(-c2cc(C(=O)N[C@H](C)c3ccc(C)nc3)cc(C(O)c3cncn3C)c2)cc1 (stereo partly shown) [Compound 330] | < 100 nM | < 100 nM | – | – | –
Cc1ccc(-c2cc(C(=O)N[C@H](C)c3ccc(C)nc3)cc(C(O)c3nccs3)c2)nc1 (stereo partly shown) [Compound 291] | < 100 nM | < 100 nM | – | – | –
Cc1ccc(-c2cc(C(=O)NCc3cnc(C)nc3)cc(S(C)(=O)=O)c2)cc1 [Compound 22, 4′-Methyl-N-((2-methylpyrimidin-5-yl)methyl)-5-(methylsulfonyl)biphenyl-3-carboxamide] | – | – | < 100 nM | 100 to 500 nM | –
Cc1ccc(-c2cc(C(=O)N[C@H](C)c3ccc(C)nc3)cc(C(=O)N3CC[C@@H](O)C3)c2)nc1 [Compound 178] | – | – | < 100 nM | < 100 nM | –
Cc1ccc(-c2cc(C(=O)NCc3ccc(C)nc3)cc(C(=O)N3CCN4CCCC4C3)c2)cc1 (stereo not shown) [Compound 128] | – | – | < 100 nM | < 100 nM | –
Cc1ncc(CNC(=O)c2cc(C(=O)N3CCCC3)cc(-c3ccc(C(F)(F)F)cc3)c2)cn1 [Compound 54] | – | – | > 1000 nM | > 1000 nM | –
Cc1ccc(-c2cc(C#N)cc(C(=O)NCc3ccc(C)nc3)c2)cc1 [Compound 153] | – | – | 100 to 500 nM | 100 to 500 nM | –
Cc1ccc(-c2cc(C(=O)NC(C)c3ccc(Cl)c(S(C)(=O)=O)c3)cc(C(=O)N3CCCC3)c2)cc1 (stereo not shown) [Compound 45, N-(1-(4-Chloro-3-(methylsulfonyl)phenyl)ethyl)-4′-methyl-5-(pyrrolidine-1-carbonyl)biphenyl-3-carboxamide] | – | – | 100 to 500 nM | < 100 nM | –
Cc1ccc(-c2cc(C(=O)NC(C)c3csc(C)n3)cc(C(=O)N3CCCC3)c2)cc1 (stereo not shown) [Compound 111, 4′-Methyl-N-(1-(2-methylthiazol-4-yl)ethyl)-5-(pyrrolidine-1-carbonyl)biphenyl-3-carboxamide] | – | – | < 100 nM | 100 to 500 nM | –
Cc1ccc(-c2cc(C(=O)N[C@H](C)c3cnn(C)c3Cl)cc(C(=O)N3CCCC3)c2)cc1 [Compound 108, (R)—N-(1-(5-Chloro-1-methyl-1H-pyrazol-4-yl)ethyl)-4′-methyl-5-(pyrrolidine-1-carbonyl)biphenyl-3-carboxamide] | – | – | < 100 nM | < 100 nM | –
COc1ncc(CNC(=O)c2cc(-c3ccc(C)cc3)cc(S(C)(=O)=O)c2)cn1 [Compound 115] | – | – | < 100 nM | 100 to 500 nM | –
Cc1ccc(CNC(=O)c2cc(-c3ccc(Cl)c(C)c3)cc(S(C)(=O)=O)c2)cn1 [Compound 119] | – | – | > 1000 nM | > 1000 nM | –
